Structures are written as SMILES.

The nature of data set [1]: CC50 assay in the anti-HCV replicon assay (CellTiter-Glo). The class given is cell-based, human. The following applies: human, Huh-7 hepatoma cells harbouring an HCV replicon; Huh-7 HCV replicon cells, 3 days incubation, CellTiter-Glo luminescence. As for the experimental part: (§1) The anti HCV activity of the quinazoline derivatives of this invention was tested in a human hepatoma Huh-7 cell line harbouring a HCV replicon. The assay comprised the following steps:
(§2) Step 1: compound preparation and serial dilution • 1. for water soluble quinazoline derivatives, a volume of 500 μL of solution in cell media (DMEM, 10% FBS, P/S, L-Glutamine) was prepared with a concentration being twice the concentration of the starting final serial dilution concentration. A volume of 150 μL of the solution was added to the pre-specified wells in column 1 of a 96-well cell culture plate (PerkinElmer, white plate, cat. #6005181, for EC50 assay; black plate, cat. #6005182 for CC50 assay). The rest of the plate, columns 2-12, was filled with 100 μL of cell media. The plate was then placed on a Precision 2000 Workstation to start the serial dilution. Compounds were diluted three times each step from column 1 to column 10. Column 11 was used as a blank control (no compound added). • 2. for quinazoline derivatives requiring DMSO to dissolve, serial dilution is performed in 50% DMSO in a 384-well plate. A solution containing a compound at 100-fold concentration of the starting final serial dilution concentration was prepared in 50% DMSO and added to the pre-specified wells in column 1 of a polypropylene 384-well plate. The plate was then placed on a Precision 2000 Workstation to start the serial dilution. After the serial dilution, a volume of 2 μL of the solution was transferred from the 384-well plate to a 96-well cell culture plate containing 100 μL of cell media on a Biomek FX Workstation. The DMSO concentration in the final assay condition was 0.5% after cells are added to the plate and the total volume in each well is brought to 200 μL.
(§3) Step 2: to each well of the serial dilution plate prepared above, 100 μL of cell media containing 6000 suspended Huh-7 HCV replicon cells was added with a Multidrop workstation. The plates were incubated for 3 days at 37° C. with 5% CO2.
(§4) Step 3: detection: • a) for the EC50 assay, the media in a 96-well cell culture plate was aspirated with a Biotek EL405 plate-washer. A volume of 200 μL of a solution containing a 1:1 mixture of cell-lysis buffer (Promega, Luciferase Cell Culture Lysis 5× Reagent, cat. #E1531) and luciferase substrate solution (Promega, Luciferase Assay, cat.# E4550) was added to each well of the plate with Multidrop. The plate was incubated for 30 minutes at room temperature before the luminescence signal was measured with a TopCount plate-reader. • b) for the CC50 assay, a volume of 100 μL of pre-mixed CellTiter-Glo (Promega, cat.# G7572) solution is added directly to the cell culture in each well of the plate and the luminescence signal is measured with a TopCount plate-reader after 10 minutes of incubation at room temperature.
(§5) Results in the table below are expressed by the following data: • the 50% cytostatic concentration (CC50), i.e. the concentration that results in 50% inhibition of cell growth, and • the 50% effective concentration (EC50), i.e. the concentration that […].
In general terms: Replicon systems follow genome replication, usually without infectious particles.

The next data set concerns HCV replicon. The data set can be described thus: Anti-HCV replicon assay, EC50 (luciferase readout). The class given is cell-based. The settings on record: Hepatitis C virus, 72 h; Huh-7 HCV replicon cells, 3 days incubation, luciferase luminescence. As for the experimental part:
as §1, §2, §3, §4, §5

Regarding `CONC(=O)c1ccc(-c2ccc3nc(N)nc(OCCO)c3c2)cc1` [Example 191, 4-[2-Amino-4-(2-hydroxy-ethoxy)-quinazolin-6-yl]-N-methoxy-benzamide], the CC50 (commonly the concentration that lowers cell viability or growth by half) at 3 days in data set [1] was more than 20 µM. For the same compound, the EC50 (in general, the concentration needed to bring the measured effect to its halfway point) in the data set on HCV replicon fell in the range of 1 to 10 µM.
Turning to `CCOc1nc(N)nc2ccc(-c3ccoc3)cc12` [Example 40, 4-Ethoxy-6-furan-3-yl-quinazolin-2-ylamine], the CC50 at 3 days in data set [1] was more than 20 µM. For the same compound, in the data set on HCV replicon, the EC50 is 1 to 10 µM.
In the case of `CNC(=O)c1ccc(-c2ccc3nc(N)nc(OC(C)C)c3c2)cc1Cl` [Example 182, 4-(2-Amino-4-isopropoxy-quinazolin-6-yl)-2-chloro-N-methyl-benzamide], in data set [1], the CC50 at 3 days was more than 20 µM. In the data set with HCV replicon, the EC50 was less than 0.3 µM.
`CC(C)Oc1ncnc2ccc(-c3ccc(F)cc3)cc12` [Example 248, 6-(4-Fluorophenyl)-4-isopropoxy-quinazoline] returned a CC50 at 3 days in data set [1] of more than 20 µM. In addition, the EC50 in the data set on HCV replicon was 1 to 10 µM.
Turning to `CN(C)CCCOc1nc(N)nc2ccc(-c3ccc(Cl)cc3Cl)cc12` [Example 229, 6-(2,4-Dichlorophenyl)-4-(3-dimethylamino-propoxy)-quinazolin-2-ylamine], the CC50 at 3 days in data set [1] was more than 20 µM. Besides, the EC50 in the data set on HCV replicon is 1 to 10 µM.
The compound `Nc1nc(OCC2CCC2)c2cc(-c3ccn[nH]3)ccc2n1` [Example 113, 4-Cyclobutylmethoxy-6-(2H-pyrazol-3-yl)-quinazolin-2-ylamine] registered a CC50 at 3 days in data set [1] of 10 to 20 µM. This compound displayed an EC50 in the data set with HCV replicon of 0.3 to 1 µM.
As for `CCOc1nc(N)nc2ccc(-c3ccc(C(=O)NCC(C)C)cc3)cc12` [Example 150, 4-(2-Amino-4-ethoxy-quinazolin-6-yl)-N-isobutyl-benzamide], in data set [1], the CC50 at 3 days fell in the range of 10 to 20 µM. Moreover, the 50% effective concentration (EC50) with HCV replicon lay within 1 to 10 µM.
`Cc1cc(C)cc(-c2ccc3nc(N)nc(OCCCN(C)C)c3c2)c1` [Example 231, 4-(3-Dimethylamino-propoxy)-6-(3,5-dimethyl-phenyl)-quinazolin-2-ylamine]: the CC50 at 3 days in data set [1] is more than 20 µM. Also, in the data set on HCV replicon, the EC50 was 1 to 10 µM.
On the same counts, the results for `CN(C)CCNC(=O)c1ccc(-c2ccc3nc(NCc4ccc(F)cc4)nc(O[C@H]4CCOC4)c3c2)cc1` [Example 249, (S)-4-(2-(4-fluorobenzylamino)-4-(tetrahydrofuran-3-yloxy)quinazolin-6-yl)-N-(2-(dimethylamino)ethyl)benzamide] are less than 10 µM and less than 0.3 µM.
In data set [1], `Nc1nc(OCCF)c2cc(-c3cccc(O)c3)ccc2n1` [Example 210, 3-[2-Amino-4-(2-fluoro-ethoxy)-quinazolin-6-yl]-phenol] displayed a CC50 at 3 days of more than 20 µM. The EC50 in the data set with HCV replicon was 1 to 10 µM.
`Cc1ccc(-c2ccc3nc(N)nc(OC(C)C)c3c2)cc1` [Example 79, 4-Isopropoxy-6-p-tolyl-quinazolin-2-ylamine] had a CC50 at 3 days in data set [1] of more than 20 µM. This compound also displayed an EC50 in the data set on HCV replicon of 1 to 10 µM.
Consider `CCOc1nc(N)nc2ccc(-c3ccco3)cc12` [Example 44, 4-Ethoxy-6-furan-2-yl-quinazolin-2-ylamine], for which, in data set [1], the CC50 at 3 days was more than 20 µM. In the data set on HCV replicon, this compound showed an EC50 of 1 to 10 µM.
`CC(C)Oc1nc(N)nc2ccc(-c3ccco3)cc12` [Example 88, 6-Furan-2-yl-4-isopropoxy-quinazolin-2-ylamine] came in with a CC50 at 3 days in data set [1] of more than 20 µM. Moreover, in the data set on HCV replicon, the EC50 lay in the range of 1 to 10 µM.
Turning to `Nc1nc(OCCF)c2cc(-c3ccc(C(=O)NC4CC4)cc3)ccc2n1` [Example 211, 4-[2-Amino-4-(2-fluoro-ethoxy)-quinazolin-6-yl]-N-cyclopropyl-benzamide], in data set [1], the CC50 at 3 days was more than 20 µM. The EC50 in the data set on HCV replicon fell in the range of 0.3 to 1 µM.
In turn, `CC(C)Oc1nc(N)nc2ccc(-c3ccc(C(=O)N(C)C)cc3)cc12` [Example 127, 4-(2-Amino-4-isopropoxy-quinazolin-6-yl)-N,N-dimethyl-benzamide] had a CC50 at 3 days in data set [1] of more than 20 µM. The same compound had an EC50 in the data set on HCV replicon of 1 to 10 µM.
Taken in the same sequence, the figures for `Nc1nc(OCCF)c2cc(-c3ccc(O)cc3)ccc2n1` [Example 209, 4-[2-Amino-4-(2-fluoro-ethoxy)-quinazolin-6-yl]-phenol] were more than 20 µM and 1 to 10 µM.
Consider `CC(C)NC(=O)c1ccc(-c2ccc3nc(N)nc(OCCO)c3c2)cc1` [Example 190, 4-[2-Amino-4-(2-hydroxy-ethoxy)-quinazolin-6-yl]-N-isopropyl-benzamide], for which the CC50 at 3 days in data set [1] was more than 20 µM. Also, the EC50 in the data set with HCV replicon lay in the range of 1 to 10 µM.
With `CC(C)(CN1CCOCC1)NC(=O)c1ccc(-c2ccc3nc(N)nc(O[C@@H]4CCOC4)c3c2)cc1` [Example 222, (R)-4-[2-Amino-4-(tetrahydro-furan-3-yloxy)-quinazolin-6-yl]-N-(1,1-dimethyl-2-morpholin-4-yl-ethyl)-benzamide], in data set [1], the CC50 at 3 days is more than 20 µM. The compound also had an EC50 with HCV replicon of less than 0.3 µM.
`CC(C)(CN1CCCC1)NC(=O)c1ccc(-c2ccc3nc(N)nc(O[C@@H]4CCOC4)c3c2)cc1` [Example 223, (R)-4-[2-Amino-4-(tetrahydro-furan-3-yloxy)-quinazolin-6-yl]-N-(1,1-dimethyl-2-pyrrolidin-1-yl-ethyl)-benzamide] came in with a CC50 at 3 days in data set [1] of less than 10 µM. For the same compound, the EC50 with HCV replicon was less than 0.3 µM.
Turning to `Nc1nc(O[C@@H]2CCOC2)c2cc(-c3ccc(C(=O)NCCN4CCCC4)cc3)ccc2n1` [Example 218, (R)-4-[2-Amino-4-(tetrahydro-furan-3-yloxy)-quinazolin-6-yl]-N-(2-pyrrolidin-1-yl-ethyl)-benzamide], the CC50 at 3 days in data set [1] was less than 10 µM. The compound further came in with an EC50 with HCV replicon of less than 0.3 µM.
Consider `COCCOc1nc(N)nc2ccc(-c3cccc(F)c3F)cc12` [Example 52, 6-(2,3-Difluoro-phenyl)-4-(2-methoxy-ethoxy)-quinazolin-2-ylamine], for which the CC50 at 3 days in data set [1] is 10 to 20 µM. The EC50 in the data set on HCV replicon is 1 to 10 µM.
On the same counts, the results for `CC(C)Oc1nc(N)nc2ccc(-c3ccc(C(=O)NC(C)(C)C)cc3)cc12` [Example 174, 4-(2-Amino-4-isopropoxy-quinazolin-6-yl)-N-tert-butyl-benzamide] are 10 to 20 µM and 0.3 to 1 µM.
For the compound `CONC(=O)c1ccc(-c2ccc3nc(N)nc(OCCF)c3c2)cc1` [Example 203, 4-[2-Amino-4-(2-fluoro-ethoxy)-quinazolin-6-yl]-N-methoxy-benzamide], the half-maximal cytotoxic concentration (CC50) at 3 days in data set [1] was more than 20 µM. Further, the EC50 with HCV replicon lay within 1 to 10 µM.
The compound `Nc1nc(OCC2CCC2)c2cc(-c3ccco3)ccc2n1` [Example 116, 4-Cyclobutylmethoxy-6-furan-2-yl-quinazolin-2-ylamine] gave a CC50 at 3 days in data set [1] of more than 20 µM. In the data set on HCV replicon, this compound registered an EC50 of 1 to 10 µM.
`Nc1nc(OCCO)c2cc(-c3ccc(C(=O)NC4CCCC4)cc3)ccc2n1` [Example 189, 4-[2-Amino-4-(2-hydroxy-ethoxy)-quinazolin-6-yl]-N-cyclopentyl-benzamide] showed a CC50 at 3 days in data set [1] of more than 20 µM. The EC50 in the data set with HCV replicon was 1 to 10 µM.
`CC(C)Oc1nc(N)nc2ccc(-c3ccccc3OCc3ccccc3)cc12` [Example 98, 6-(2-Benzyloxy-phenyl)-4-isopropoxy-quinazolin-2-ylamine] came in with a CC50 at 3 days in data set [1] of less than 10 µM. This compound also gave an EC50 in the data set with HCV replicon of 1 to 10 µM.
In data set [1], `CONC(=O)c1ccc(-c2ccc3nc(N)nc(OC(C)C)c3c2)cc1` [Example 177, 4-(2-Amino-4-isopropoxy-quinazolin-6-yl)-N-methoxy-benzamide] yielded a CC50 at 3 days of 10 to 20 µM. The EC50 with HCV replicon was less than 0.3 µM.
Taken in the same sequence, the figures for `Nc1nc(OCCF)c2cc(-c3ccc(C(=O)NCc4ccccc4)cc3)ccc2n1` [Example 197, 4-[2-Amino-4-(2-fluoro-ethoxy)-quinazolin-6-yl]-N-benzyl-benzamide] were 10 to 20 µM and 1 to 10 µM.
In the case of `CNC(=O)c1ccc(-c2ccc3nc(N)nc(OCCF)c3c2)cc1` [Example 212, 4-[2-Amino-4-(2-fluoro-ethoxy)-quinazolin-6-yl]-N-methyl-benzamide], in data set [1], the CC50 at 3 days was more than 20 µM. Further, the EC50 in the data set with HCV replicon lay within 1 to 10 µM.
In data set [1], `Nc1nc(OCc2ccccc2)c2cc(-c3ccn[nH]3)ccc2n1` [Example 70, 4-Benzyloxy-6-(2H-pyrazol-3-yl)-quinazolin-2-ylamine] registered a CC50 at 3 days of 10 to 20 µM. In the data set with HCV replicon, the EC50 lay in the range of 1 to 10 µM.

The values are drawn from patent US8673929B2, “4,6-di- and 2,4,6-trisubstituted quinazoline derivatives and pharmaceutical compositions useful for treating viral infections” (priority 2006, dated 2014).
